The record followed here is patent publication US5324725A, “7-fused 2-(piperazinoalkyl) indole derivatives, intermediates and compositions thereof” (Kali-Chemie Pharma GmbH, priority 1991, dated 1994).

One assay concerns the target T1, 5-lipoxygenase (Mus musculus, UniProt P48999).
T1 construct: A cell suspension containing peritoneal cells of male mice 8-10 weeks old was obtained; endogenous in cells; host or cells: mouse peritoneal macrophages (male mice 8-10 weeks old), zymosan-stimulated
T1 sequence (P48999 1-674): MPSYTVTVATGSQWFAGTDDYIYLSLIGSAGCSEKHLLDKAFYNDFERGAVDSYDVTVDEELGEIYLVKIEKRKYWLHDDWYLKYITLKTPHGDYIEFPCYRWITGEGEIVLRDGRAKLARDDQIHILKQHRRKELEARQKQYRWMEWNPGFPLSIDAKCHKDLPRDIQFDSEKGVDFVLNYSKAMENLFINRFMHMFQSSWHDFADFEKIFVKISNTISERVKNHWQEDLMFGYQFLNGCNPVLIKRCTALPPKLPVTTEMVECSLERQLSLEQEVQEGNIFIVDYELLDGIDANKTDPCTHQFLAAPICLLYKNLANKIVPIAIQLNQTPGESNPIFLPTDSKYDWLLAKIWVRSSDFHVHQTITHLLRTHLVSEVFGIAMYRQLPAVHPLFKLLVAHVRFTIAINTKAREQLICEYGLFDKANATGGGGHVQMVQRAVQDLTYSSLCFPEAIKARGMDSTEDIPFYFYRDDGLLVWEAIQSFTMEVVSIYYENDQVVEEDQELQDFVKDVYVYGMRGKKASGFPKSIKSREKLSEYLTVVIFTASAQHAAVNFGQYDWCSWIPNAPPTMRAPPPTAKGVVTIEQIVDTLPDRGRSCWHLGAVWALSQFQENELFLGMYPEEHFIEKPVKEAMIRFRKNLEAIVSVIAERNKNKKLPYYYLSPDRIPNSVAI
The assay can be described thus: 5-lipoxygenase inhibition: release of LTC4 from zymosan-stimulated mouse peritoneal macrophage cells. It is filed as cell-based. The settings on record: 10^-5 mol/l, read-out: In vitro % inhibition effect on the release of LTC4. The source says:
(§1) 5. In vitro determination of cyclooxygenase inhibition and 5-lipoxygenase inhibition.
(§2) After activation of the cell, arachidonic acid contained in cell membranes is metabolized in two ways. Leukotrienes, inter alia leukotriene C4, are formed under the action of the enzyme 5-lipoxygenase (5-LO), and prostanoids are formed under the action of the enzyme cyclooxygenase (CO). In in vitro systems, the metabolites are secreted from the cell.
(§3) To investigate the cyclooxygenase-inhibiting and the 5-lipoxygenase-inhibiting properties, the inhibitory effect of the test substances on the biosynthesis of the arachidonic acid derivatives leukotriene C4 (LTC4) and 6-ketoprostaglandin F1 α (6-keto-PGF1 α) is determined in vitro on mouse peritoneal macrophage cells. This was accomplished by determining the LTC4 and 6-keto-PGF1 α contents in a culture medium of mouse peritoneal macrophage cells by zymosan stimulation as described by Scott et al. (J. Exp. Med. 152 (1980), 324-335) and by Fradin et al. (Prostaglandins, 33 (1987), 579-589).
(§4) A cell suspension containing peritoneal cells of male mice 8-10 weeks old was obtained in a known manner. A commercially available cell culture solution (RPMI 1640 from Messrs. Gibco) was used to which heparin (I0 international units/ml) and antibiotics were added according to the recipe of Bonney et al. (Biochem. J. 176 (1978) 422-433). The cell suspension was adjusted to a cell concentration of 10^6 cells per ml and distributed uniformly on titer plates containing […] (wells). These were kept for two hours in a humidified incubator filled with air enriched with 7% CO2. Cells not adhering to the titer cell walls were then removed by washing. The remaining macrophage cells adhering to the walls were incubated for about 12 hours in a suspension medium to which 0.1% bovine serum albumin (BSA) were added. The suspension medium was then replaced by a Hanks balanced salt solution (HBSS) containing 10 mM Hepes (hydroxyethyl-piperazinoethanesulfonic acid), to which a 0.1% strength solution of the test substances in aqueous, 1% strength dimethylformamide or only the solvent had been added. After 15 minutes the arachidonic acid metabolism was stimulated by adding 10 particles of zymosan (=glycoproteinmixture, isolated from cell walls of beer yeast, Saccharomyces cerevisiae, manufactured by Sigma Chemical Co., Munich) per titer cell. After 2 hours, samples of each of the supernatant liquids were investigated for their 6-keto-PGF1 α and LTC4 contents by means of an enzyme immunoassay (EIA) carried out by the method of Pradelles et al. (Analytical Chem. 57 (1985), 1170-1173). The determination of LTC4 and the determination of 6-keto-PGF1 α were each carried out in comparison with a comparative scale on suitable dilutions of the samples (1:50 to 1:250 for the LTC4 determination and 1:250 to 1:1250 for the 6-keto-PGF1 α determination). To determine the inhibitory effect of a 10^-5 molar concentration of the compounds, the amount of reference eicosanoids was determined and the inhibitory effect was calculated from this in % inhibition compared to the measurements of the zymosan controls.

A further assay deals with T2, cyclooxygenase (Mus musculus, UniProt P22437).
T2 construct: A cell suspension containing peritoneal cells of male mice 8-10 weeks old was obtained; endogenous in cells; host or cells: mouse peritoneal macrophages (male mice 8-10 weeks old), zymosan-stimulated
T2 sequence (P22437 27-602): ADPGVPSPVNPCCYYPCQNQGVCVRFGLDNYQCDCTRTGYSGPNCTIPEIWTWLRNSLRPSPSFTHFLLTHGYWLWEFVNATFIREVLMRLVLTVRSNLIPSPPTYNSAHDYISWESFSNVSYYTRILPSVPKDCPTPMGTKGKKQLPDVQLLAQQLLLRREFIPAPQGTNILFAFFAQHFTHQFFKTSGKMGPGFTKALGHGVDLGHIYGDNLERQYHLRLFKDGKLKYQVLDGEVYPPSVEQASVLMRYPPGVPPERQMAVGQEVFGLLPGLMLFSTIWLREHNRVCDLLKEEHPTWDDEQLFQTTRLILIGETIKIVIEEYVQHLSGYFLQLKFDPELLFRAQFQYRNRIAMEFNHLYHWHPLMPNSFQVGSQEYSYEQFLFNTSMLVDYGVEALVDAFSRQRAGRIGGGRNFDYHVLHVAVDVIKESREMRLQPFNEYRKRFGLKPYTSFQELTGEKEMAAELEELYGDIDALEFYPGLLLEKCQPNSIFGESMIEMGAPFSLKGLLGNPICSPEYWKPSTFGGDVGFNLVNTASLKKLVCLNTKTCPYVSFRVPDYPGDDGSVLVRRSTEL
Description: Cyclooxygenase inhibition: release of 6-keto-PGF1 α from zymosan-stimulated mouse peritoneal macrophage cells. The format is cell-based. The settings on record: 10^-5 mol/l, read-out: In vitro % inhibition effect on the release of 6-keto-PGF1 α.
Text: as §1, §2, §3, §4

One may read the inhibition as the relative decrease from the control value, in per cent. On to `Cc1ccnc(N2CCN(CCc3c(C)n4c5c(ccc(C(O)C(C)C)c35)SCC4)CC2)c1` (stereo not drawn) [Example 90], for which the inhibition at 10 µM at 5-lipoxygenase came to 66%; at cyclooxygenase, 56%.
The matching figures for `Cc1ccnc(N2CCN(CCc3c(C)n4c5c(cc(C(=O)c6ccccc6)cc35)CCC4)CC2)c1` [Example 66]: 33% and 72%.
The like results for `Cc1ccnc(N2CCN(CCc3c(C)n4c5c(cc(C(O)C(C)C)cc35)CCC4)CC2)c1` (stereo not drawn) [Example 19, 5,6-Dihydro-8-(1-hydroxy-2-methylpropyl)-2-methyl-1-{2-[4-(4-methylpyridin-2-yl)piperazin-1-yl]ethyl}-4H-pyrrolo-[3,2,1-ij]quinoline] were, in that order, 55% and 5%.
The like results for `Cc1ccnc(N2CCN(CCc3c(C)n4c5c(ccc(C(=O)C(C)C)c35)SCC4)CC2)c1` [Example 91] were, in that order, 81% and 54%.
In the case of `CNc1cc2c3c(c1)c(CCN1CCN(c4cc(C)ccn4)CC1)c(C)n3CCC2` [Example 80], the inhibition at 10 µM on 5-lipoxygenase turned out to be 39%; at cyclooxygenase it was 12%.
Turning to `CCCCC1CCc2cc(OC)cc3c(CCN4CCN(c5cc(C)ccn5)CC4)c(C)n1c23` (stereo not drawn) [Example 63], the inhibition at 10 µM on 5-lipoxygenase came to 98%; at cyclooxygenase it was 38%.
The like results for `Cc1ccnc(N2CCN(CCc3c(C)n4c5c(cc(Br)cc35)CCC4)CC2)c1` [Example 9, 8-Bromo-2-methyl-1-{2-[4-(4-methylpyridin-2-yl)piperazin-1-yl]ethyl}-5,6-dihydro-4H-pyrrolo[3,2,1-ij]quinoline] were, in that order, 62% and 19%.
The matching figures for `Cc1ccnc(N2CCN(CC(O)c3c(C4CCCCC4)n4c5c(cccc35)CCC4)CC2)c1` (stereo not drawn) [Example 85]: 62% and 52%.
The matching figures for `Cc1c(CCN2CCN(c3ccccn3)CC2)c2cccc3c2n1CCC3` [Example 37]: 13% and 32%.
For `Cc1ccc(N2CCN(CCc3c(C)n4c5c(cccc35)CCC4)CC2)nc1` [Example 42], the inhibition at 10 µM at 5-lipoxygenase is 15%; on cyclooxygenase it was 76%.
The matching figures for `COc1ccc(C2CCc3cccc4c(CCN5CCN(c6cc(C)ccn6)CC5)c(C)n2c34)cc1` (stereo not drawn) [Example 59]: 80% and 43%.
The matching figures for `Cc1ccnc(N2CCN(CCc3c(C)n4c5c(cccc35)CCC4c3ccc(O)cc3)CC2)c1` (stereo not drawn) [Example 61]: 98% and 65%.
The matching figures for `Cc1ccnc(N2CCN(CCc3c(C)n4c5c(cc(N(C)C)cc35)CCC4)CC2)c1` [Example 81]: 29% and 16%.
In the case of `CCCCCCCC1CCc2cccc3c(CCN4CCN(c5cc(C)ccn5)CC4)c(C)n1c23` (stereo not drawn) [Example 4, 4-n-heptyl-5,6-dihydro-2-methyl-1-{2-[4-(4-methylpyridin-2-yl)piperazin-1-yl]ethyl}-4H-pyrrolo[3,2,1-ij]-quinoline], the inhibition at 10 µM on 5-lipoxygenase amounted to 44%; on cyclooxygenase it was 20%.
The like results for `CCCCC1CCc2cc(C(=O)C(C)C)cc3c(CCN4CCN(c5cc(C)ccn5)CC4)c(C)n1c23` (stereo not drawn) [Example 23, 4-n-Butyl-5,6-dihydro-8-(2-methyl-1-oxopropyl)-2-methyl-1-{2-[4-(4-methylpyridin-2-yl)piperazin-1-yl]ethyl}-4H-pyrrolo[3,2,1-ij]quinoline] were, in that order, 94% and 43%.
Regarding `Cc1ccnc(N2CCN(CCc3c(C)n4c5c(cc(NC(=O)c6ccccc6)cc35)CCC4)CC2)c1` [Example 25, 8-Benzoylamino-5,6-dihydro-2-methyl-1-{2-[4-(4-methylpyridin-2-yl)piperazin-1-yl]-ethyl}-4H-pyrrolo[3,2,1-ij]quinoline], the values for the inhibition at 10 µM at 5-lipoxygenase and on cyclooxygenase were 69% and 24%, respectively.
As to `Cc1ccnc(N2CCN(CCc3c(-c4ccc(F)cc4)n4c5c(cccc35)CCC4)CC2)c1` [Example 47], the inhibition at 10 µM at cyclooxygenase came to 69%.
